From patent publication US10246456B2, “IRAK4 inhibiting agents” (BIOGEN MA INC., priority 2014, dated 2019)

Tests used:
IRAK4 = IRAK4 (Homo sapiens (Human), UniProt Q9NWZ3); assay: IRAK-4 AlphaScreen biochemical kinase assay; details: 1 nM IRAK4, 1 mM ATP, 3.5 h at RT
Method in brief: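 AlphaScreen read-out: streptavidin beads bind the biotinylated peptide and protein A beads bind the anti-phosphothreonine antibody, so energy transfer reports phosphorylation of the peptide. The kinase is human IRAK-4.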

IL-6 in A549 cells = assay: Cell-based IL-6 ELISA assay in IL-1beta stimulated A549 cells; details: 2 ng/ml human IL-1beta overnight
Procedure: The cell-based assays is based on IL-6 ELISA quantification. Briefly, A549 cells are cultured in DMEM with 10% FBS medium. When cells reach 80% confluence they are trypsin treated and seeded 180 ul/well in 96-well plate at 2.5×10^4 cells/well. Then, 20 ul of compound serial dilutions (starting at 10 uM, 10 points) are added to the cell plate; incubate for 30 min at 37 C and stimulated with 2 ng/ml human IL-1beta 37 C, 5% CO2 overnight. The next day 100 ul of cell supernatant per well are analyzed on a Human IL-6 Quantikine ELISA kit from R&D Systems.

Chain of IRAK4 (Q9NWZ3 whole entry, species assumed): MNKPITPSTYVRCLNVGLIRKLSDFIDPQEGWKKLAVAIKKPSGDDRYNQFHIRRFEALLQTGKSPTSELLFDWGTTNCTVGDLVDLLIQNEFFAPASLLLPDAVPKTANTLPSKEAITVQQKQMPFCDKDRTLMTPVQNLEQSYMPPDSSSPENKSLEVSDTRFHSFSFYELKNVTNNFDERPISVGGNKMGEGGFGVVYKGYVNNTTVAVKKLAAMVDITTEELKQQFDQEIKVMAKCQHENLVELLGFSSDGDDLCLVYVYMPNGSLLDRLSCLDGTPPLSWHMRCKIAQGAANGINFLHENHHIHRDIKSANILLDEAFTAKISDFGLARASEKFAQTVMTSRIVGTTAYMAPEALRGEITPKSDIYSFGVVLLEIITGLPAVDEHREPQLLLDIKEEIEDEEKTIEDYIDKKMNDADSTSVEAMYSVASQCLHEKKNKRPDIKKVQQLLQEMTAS

SMILES	IC50 (IRAK4) [nM]	EC50 (IL-6 in A549 cells) [nM]
CCC[C@H](N)c1cccc(-c2cc(N3CCOC(C)C3)c3cnn(-c4cccc(CO)n4)c3c2)n1 (stereo partly drawn) [Example 334, (6-(6-(6-((S)-1-aminobutyl)pyridin-2-yl)-4-(2-methylmorpholino)-1H-indazol-1-yl)pyridin-2-yl)methanol]	< 100	≤ 1000
CCC[C@H](N)c1cccc(-c2cc(N3CC(C)OC(C)C3)c3cnn(-c4cccc(CO)n4)c3c2)n1 (stereo partly drawn) [Example 335, (6-(6-(6-((S)-1-aminobutyl)pyridin-2-yl)-4-(2,6-dimethylmorpholino)-1H-indazol-1-yl)pyridin-2-yl)methanol]	< 100	≤ 1000
CCC[C@H](N)c1cccc(-c2cc(N3CCSCC3)c3cnn(-c4cccc(CO)n4)c3c2)n1 [Example 338, (S)-(6-(6-(6-(1-aminobutyl)pyridin-2-yl)-4-thiomorpholino-1H-indazol-1-yl)pyridin-2-yl)methanol]	< 100	≤ 1000
CCC[C@H](N)c1cccc(-c2cc(N3CC(C)(C)C3)c3cnn(-c4cccc(CO)n4)c3c2)n1 [Example 340, (S)-(6-(6-(6-(1-aminobutyl)pyridin-2-yl)-4-(3,3-dimethylazetidin-1-yl)-1H-indazol-1-yl)pyridin-2-yl)methanol]	< 100	≤ 1000
CCC[C@H](N)c1cccc(-c2cc(N3CCC(C(=O)O)C3)c3cnn(-c4cccc(CO)n4)c3c2)n1 (stereo partly drawn) [Example 341, 1-(6-(6-((S)-1-aminobutyl)pyridin-2-yl)-1-(6-(hydroxymethyl)pyridin-2-yl)-1H-indazol-4-yl)pyrrolidine-3-carboxylic acid]	< 100	≤ 1000
CCC[C@H](N)c1cccc(-c2cc(N3CCN(C)CC3)c3cnn(-c4cccc(CO)n4)c3c2)n1 [Example 343, (S)-(6-(6-(6-(1-aminobutyl)pyridin-2-yl)-4-(4-methylpiperazin-1-yl)-1H-indazol-1-yl)pyridin-2-yl)methanol]	< 100	≤ 1000
CCC[C@H](N)c1cccc(-c2cc(N3CC(C(=O)O)C3)c3cnn(-c4cccc(CO)n4)c3c2)n1 [Example 348, (S)-1-(6-(6-(1-aminobutyl)pyridin-2-yl)-1-(6-(hydroxymethyl)pyridin-2-yl)-1H-indazol-4-yl)azetidine-3-carboxylic acid]	< 100	≤ 1000
C[C@H](N)c1cccc(-c2cc(-n3cncn3)c3cnn(-c4cccc(CO)n4)c3c2)n1 [Example 355, (S)-(6-(6-(6-(1-aminoethyl)pyridin-2-yl)-4-(1H-1,2,4-triazol-1-yl)-1H-indazol-1-yl)pyridin-2-yl)methanol]	< 100	≤ 1000
C[C@H](N)c1cccc(-c2cc(-n3ccc(C(F)(F)F)n3)c3cnn(-c4cccc(CO)n4)c3c2)n1 [Example 356, (S)-(6-(6-(6-(1-aminoethyl)pyridin-2-yl)-4-(3-(trifluoromethyl)-1H-pyrazol-1-yl)-1H-indazol-1-yl)pyridin-2-yl)methanol]	< 100	1000 to 10000
C[C@H](N)c1cccc(-c2cc(-c3ccn(C)n3)c3cnn(-c4cccc(CO)n4)c3c2)n1 [Example 357, (S)-(6-(6-(6-(1-aminoethyl)pyridin-2-yl)-4-(1-methyl-1H-pyrazol-3-yl)-1H-indazol-1-yl)pyridin-2-yl)methanol]	< 100	≤ 1000
C[C@H](N)c1cccc(-c2cc(-c3ncco3)c3cnn(-c4cccc(CO)n4)c3c2)n1 [Example 359, (S)-(6-(6-(6-(1-aminoethyl)pyridin-2-yl)-4-(oxazol-2-yl)-1H-indazol-1-yl)pyridin-2-yl)methanol]	< 100	≤ 1000
CC[C@H](N)c1cccc(-c2cc(-c3ccn(C)n3)c3cnn(-c4cccc(CO)n4)c3c2)n1 [Example 360, (S)-(6-(6-(6-(1-aminopropyl)pyridin-2-yl)-4-(1-methyl-1H-pyrazol-3-yl)-1H-indazol-1-yl)pyridin-2-yl)methanol]	< 100	≤ 1000

Now from value to compound:

IC50 (IRAK4) [nM]	EC50 (IL-6 in A549 cells) [nM]	SMILES
< 100	≤ 1000	CCC[C@H](N)c1cccc(-c2cc(NCC(CCl)C(=O)O)c3cnn(-c4cccc(CO)n4)c3c2)n1 (stereo partly drawn) [Example 336, 3-((6-(6-((S)-1-aminobutyl)pyridin-2-yl)-1-(6-(hydroxymethyl)pyridin-2-yl)-1H-indazol-4-yl)amino)-2-(chloromethyl)propanoic acid]
< 100	≤ 1000	CCC[C@H](N)c1cccc(-c2cc(N3CCS(=O)(=O)CC3)c3cnn(-c4cccc(CO)n4)c3c2)n1 [Example 337, (S)-4-(6-(6-(1-aminobutyl)pyridin-2-yl)-1-(6-(hydroxymethyl)pyridin-2-yl)-1H-indazol-4-yl)thiomorpholine 1,1-dioxide]
< 100	≤ 1000	CCC[C@H](N)c1cccc(-c2cc(N3CCCC3)c3cnn(-c4cccc(CO)n4)c3c2)n1 [Example 342, (S)-(6-(6-(6-(1-aminobutyl)pyridin-2-yl)-4-(pyrrolidin-1-yl)-1H-indazol-1-yl)pyridin-2-yl)methanol]
< 100	≤ 1000	CCC[C@H](N)c1cccc(-c2cc(NCC(C)(C)CCl)c3cnn(-c4cccc(CO)n4)c3c2)n1 [Example 344, (S)-(6-(6-(6-(1-aminobutyl)pyridin-2-yl)-4-((3-chloro-2,2-dimethylpropyl)amino)-1H-indazol-1-yl)pyridin-2-yl)methanol]
< 100	≤ 1000	CCC[C@H](N)c1cccc(-c2cc(N3CCC(F)(F)CC3)c3cnn(-c4cccc(CO)n4)c3c2)n1 [Example 346, (S)-(6-(6-(6-(1-aminobutyl)pyridin-2-yl)-4-(4,4-difluoropiperidin-1-yl)-1H-indazol-1-yl)pyridin-2-yl)methanol]
< 100	≤ 1000	CCC[C@H](N)c1cccc(-c2cc(N3CCCC(F)(F)C3)c3cnn(-c4cccc(CO)n4)c3c2)n1 [Example 347, (S)-(6-(6-(6-(1-aminobutyl)pyridin-2-yl)-4-(3,3-difluoropiperidin-1-yl)-1H-indazol-1-yl)pyridin-2-yl)methanol]
< 100	≤ 1000	CCC[C@H](N)c1cccc(-c2cc(N3CCCC(C(=O)O)C3)c3cnn(-c4cccc(CO)n4)c3c2)n1 (stereo partly drawn) [Example 349, 1-(6-(6-((S)-1-aminobutyl)pyridin-2-yl)-1-(6-(hydroxymethyl)pyridin-2-yl)-1H-indazol-4-yl)piperidine-3-carboxylic acid]
< 100	1000 to 10000	CCC[C@H](N)c1cccc(-c2cc(N3CCC(C(=O)O)CC3)c3cnn(-c4cccc(CO)n4)c3c2)n1 [Example 350, (S)-1-(6-(6-(1-aminobutyl)pyridin-2-yl)-1-(6-(hydroxymethyl)pyridin-2-yl)-1H-indazol-4-yl)piperidine-4-carboxylic acid]
< 100	≤ 1000	C[C@H](N)c1cccc(-c2cc(-n3ccnc3)c3cnn(-c4cccc(CO)n4)c3c2)n1 [Example 354, (S)-(6-(6-(6-(1-aminoethyl)pyridin-2-yl)-4-(1H-imidazol-1-yl)-1H-indazol-1-yl)pyridin-2-yl)methanol]
< 100	≤ 1000	CCC[C@H](N)c1cccc(-c2cc(-c3ccn(C)n3)c3cnn(-c4cccc(CO)n4)c3c2)n1 [Example 361]
